For data set [1], the system named is endothelial barrier. To be noted: Zhou et al, 2012; cited from earlier work.
Data set [2] has as its target T1, PP2A (Rattus norvegicus, UniProt P63331).
T1 construct: rat liver cells exposed to palmitate, a fatty acid, PP2A activity is increased; host or cells: rat liver cells (endogenous PP2A)
The note with it: inhibition of PP2A activity; Galbo et al, 2011; cited from earlier work.

A further data set is described as follows: Toxicity studies in rats. Format: in vivo. To be noted: doses known to reduce PP2A activity in tissue. From the text: (§1) Disclosed herein is that PP2A inhibitors are effective in treating insulin resistance, Type 2 Diabetes and disorders related to Type 2 Diabetes. […] We have also shown that another structural homolog of these compounds, LB-107, is active when given orally to mice. LB-100 is entering clinical trials as a potential agent for enhancing the effectiveness of certain anticancer agents.

The test system of another data set is Akt. Description: Dephosphorylation and inactivation of Akt in mammalian cells (Example 3). The note with it: mammalian cells incl. fat, liver, muscle, endothelial cells, hepatocytes, pancreatic islet β-cells. In kind it is cell-based.
The target of data set [3] is T2, PP2A (Homo sapiens, UniProt P67775).
T2 construct: endogenous in cells; host or cells: human cancer cells
T2 sequence (P67775 whole entry): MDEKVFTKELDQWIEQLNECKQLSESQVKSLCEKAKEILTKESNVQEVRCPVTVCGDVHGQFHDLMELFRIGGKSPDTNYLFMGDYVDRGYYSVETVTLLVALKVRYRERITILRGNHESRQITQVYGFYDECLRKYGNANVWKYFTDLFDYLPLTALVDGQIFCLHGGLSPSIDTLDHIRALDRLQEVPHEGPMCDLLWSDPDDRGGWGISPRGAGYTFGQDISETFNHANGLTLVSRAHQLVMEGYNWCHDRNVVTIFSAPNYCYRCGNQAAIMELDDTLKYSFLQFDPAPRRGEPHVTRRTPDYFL
T2 sequence (P30153 whole entry partner): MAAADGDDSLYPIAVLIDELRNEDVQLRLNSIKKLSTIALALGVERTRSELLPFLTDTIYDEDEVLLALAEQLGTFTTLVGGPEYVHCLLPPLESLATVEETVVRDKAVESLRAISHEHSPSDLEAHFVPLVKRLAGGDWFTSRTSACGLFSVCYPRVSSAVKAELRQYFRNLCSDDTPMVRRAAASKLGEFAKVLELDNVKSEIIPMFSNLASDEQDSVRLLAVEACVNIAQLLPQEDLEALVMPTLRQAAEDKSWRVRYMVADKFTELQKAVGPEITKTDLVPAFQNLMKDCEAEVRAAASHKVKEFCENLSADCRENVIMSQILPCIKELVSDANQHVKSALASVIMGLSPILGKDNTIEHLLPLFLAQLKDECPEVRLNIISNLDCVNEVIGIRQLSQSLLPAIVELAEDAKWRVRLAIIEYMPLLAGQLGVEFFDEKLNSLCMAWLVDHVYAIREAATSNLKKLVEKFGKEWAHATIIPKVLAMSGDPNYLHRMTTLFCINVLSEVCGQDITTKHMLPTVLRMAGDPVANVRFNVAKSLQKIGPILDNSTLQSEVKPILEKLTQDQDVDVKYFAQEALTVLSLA
The note with it: cited from earlier work.

In the next data set the test system is cancer cells. Kind of data set: Growth of cancer cells in mouse model systems. In kind it is in vivo.
Description: (§2) The compounds used in the method of the present invention are protein phosphatase 2A (PP2A) inhibitors (Lu et al., 2009; U.S. Pat. No. 7,998,957 B2). […] It has also been shown that another structural homolog of these compounds, LB-107, is active when given orally to mice.
as §1

A short description of a further data set: Toxicity studies in dogs. Format: in vivo. To be noted: doses known to reduce PP2A activity in tissue.
Description: as §1

Data set [4] in a line: Insulin resistance in human patients diagnosed with Type 2 Diabetes (Example 4). Format: in vivo.
Data set [5] in a line: Other symptoms and complications of Type 2 Diabetes (Example 6). Format: in vivo. To be noted: for effects of other dysfunctions associated with or caused by Type 2 Diabetes: atherosclerosis, low glucose tolerance, dyslipidemia, hyperlipidemia, hypertriglyceridemia, hypercholesterolemia; for complications associated with or caused by Type 2 Diabetes: in vivo.
Data set [6] addresses T2, PP2A. To be noted: given parenterally in mice; cited from earlier work.
A short description of data set [7]: Type 2 Diabetes related vascular injury in human patients (Example 5). To be noted: human patients diagnosed with Type 2 Diabetes. In kind it is in vivo.
In data set [8] the test system is endothelial barrier. To be noted: model of sepsis; by inhibition of PP2A activation; cited from earlier work.
Data set [9] is described as follows: Activity when given orally to mice. In kind it is in vivo. The note with it: oral.
Description: as §2, §1

“Also recorded” adds a separate entry of the source.

T1 sequence (P63331 whole entry): as the sequence (P67775 whole entry) above, with V5L counted along it
T1 sequence (Q5XI34 1-589 partner): as the sequence (P30153 whole entry partner) above, with S324T counted along it

For `C=C1[C@@H](O)[C@@H]2O[C@]3(CC[C@H](/C=C/[C@@H](C)[C@@H]4CC(C)=C[C@@]5(O[C@H](C[C@@](C)(O)C(=O)O)CC[C@H]5O)O4)O3)CC[C@H]2O[C@@H]1[C@@H](O)C[C@H](C)[C@H]1O[C@@]2(CCCCO2)CC[C@H]1C` [okadaic acid], the “induction of endothelial barrier injury by lipopolysaccharide and interferon gamma” value in the data set with endothelial barrier [1] is “prevent the induction of endothelial barrier injury; also recorded: prevents the induction of endothelial barrier dysfunction”. Moreover, the “impairment of insulin activity” value at PP2A [2] is given as “reversed the impairment of insulin activity”.

Consider `CN1CCN(C(=O)C2C(C(=O)O)[C@H]3CC[C@@H]2O3)CC1` (some centres unmarked) [LB-100], for which the “toxicity on intravenous administration” value in “Toxicity studies in rats” is given as “without undue toxicity”. Moreover, in the data set on Akt, the “activation of Akt” value was “increase activation of Akt”; the “dephosphorylation and inactivation of Akt by PP2A” value (“dephosphorylation and inactivation” for short) was “reduce dephophorylation and inactivation of Akt”; the “phosphorylation of Akt” value is “increase phosphorylation of Akt”. Besides, the “inhibition of PP2A in vitro in human cancer cells” value at PP2A [3] is “inhibitors of PP2A”. Moreover, the “growth of cancer cells in mouse model systems” value in the data set on cancer cells is “inhibit the growth of cancer cells”. Further, the “toxicity on intravenous administration” value in the data set “Toxicity studies in dogs” is on record as “without undue toxicity”. Also, in data set [4], the insulin resistance result is “reduce insulin resistance” and the insulin sensitivity entry was “increase insulin sensitivity”. In data set [5], the “effects of other dysfunctions associated with or caused by Type 2 Diabetes” value (“effects of other dysfunctions associated” for short) is “reduce the effects of other dysfunctions” and the “complications associated with or caused by Type 2 Diabetes” value (“complications associated with or caused” for short) is recorded as “reduce complications associated with or caused by Type 2 Diabetes”. For the same compound, on PP2A [6], the “inhibition of PP2A in xenografts of human tumor cells in mice” value is given as “inhibitors of PP2A”. Besides, in data set [7], the “Type 2 Diabetes related vascular injury caused by disruption of the endothelial barrier” value is “reduce Type 2 Diabetes related vascular injury caused by disruption of the endothelial barrier”; the “Type 2 Diabetes related vascular injury in the liver, muscle, retina and pancreas” value was “reduce Type 2 Diabetes related vascular injury in the liver, muscle, retina and pancreas”.

`C[C@@]12C(=O)OC(=O)[C@]1(C)[C@H]1CC[C@@H]2O1` [cantharidin]: on PP2A [2], the “impairment of insulin activity” value is recorded as “reversed the impairment of insulin activity”.

With `O=C1O[C@H]([C@@H](O)CO)C(O)=C1O` [ascorbic acid], the endothelial barrier function entry in the data set with endothelial barrier [8] is listed as “improves endothelial barrier function”. The “induction of endothelial barrier injury by lipopolysaccharide and interferon gamma” value with endothelial barrier [1] is reported as “prevent the induction of endothelial barrier injury”.

Turning to `CC(C)(C)OC(=O)N1CCN(C(=O)C2C(C(=O)O)[C@H]3CC[C@@H]2O3)CC1` (some centres unmarked) [LB-102], in the data set with Akt, the “activation of Akt” value is on record as “increase activation of Akt”; the “dephosphorylation and inactivation” value is “reduce dephophorylation and inactivation of Akt”; the “phosphorylation of Akt” value is reported as “increase phosphorylation of Akt”. Further, the “inhibition of PP2A in vitro in human cancer cells” value on PP2A [3] was “inhibitors of PP2A”. Further, in the data set on cancer cells, the “growth of cancer cells in mouse model systems” value was “inhibit the growth of cancer cells”. For the same compound, in data set [4], the insulin resistance result is “reduce insulin resistance” and the insulin sensitivity result was “increase insulin sensitivity”. Further, in [5], the “effects of other dysfunctions associated” value is recorded as “reduce the effects of other dysfunctions” and the “complications associated with or caused” value is recorded as “reduce complications associated with or caused by Type 2 Diabetes”. The “inhibition of PP2A in xenografts of human tumor cells in mice” value on PP2A [6] is given as “inhibitors of PP2A”. In data set [7], the “Type 2 Diabetes related vascular injury caused by disruption of the endothelial barrier” value is “reduce Type 2 Diabetes related vascular injury caused by disruption of the endothelial barrier”; the “Type 2 Diabetes related vascular injury in the liver, muscle, retina and pancreas” value was “reduce Type 2 Diabetes related vascular injury in the liver, muscle, retina and pancreas”.

On to `COC(=O)C1C(C(=O)N2CCN(C)CC2)[C@@H]2CC[C@H]1O2` (stereo in doubt) [LB-107, 3-(4-Methylpiperazine-1-carbonyl)-7-oxa-bicyclo[2,2,1]heptane-2-carboxylic acid methyl ester], for which the “activity when given orally to mice” value in data set [9] is on record as “active”. In the data set with Akt, the “activation of Akt” value is listed as “increase activation of Akt”; the “dephosphorylation and inactivation” value is “reduce dephophorylation and inactivation of Akt”; the “phosphorylation of Akt” value is reported as “increase phosphorylation of Akt”. Moreover, in [4], the insulin resistance entry is recorded as “reduce insulin resistance” and the insulin sensitivity entry is “increase insulin sensitivity”. Further, in data set [5], the “effects of other dysfunctions associated” value was “reduce the effects of other dysfunctions” and the “complications associated with or caused” value was “reduce complications associated with or caused by Type 2 Diabetes”. Further, in [7], the “Type 2 Diabetes related vascular injury caused by disruption of the endothelial barrier” value is given as “reduce Type 2 Diabetes related vascular injury caused by disruption of the endothelial barrier”; the “Type 2 Diabetes related vascular injury in the liver, muscle, retina and pancreas” value is “reduce Type 2 Diabetes related vascular injury in the liver, muscle, retina and pancreas”.

Source of the values: patent US10668062B2, “Oxabicycloheptanes and oxabicycloheptenes for the treatment of diabetes” (priority 2012, dated 2020).
